Source: article PMC13198257, “An aerosolized dual-action autotaxin inhibitor-PPARγ agonist for the treatment of pulmonary fibrosis” (Cell Reports Medicine, 2026)
Entries after “also recorded” stand apart in the source; their conditions may differ.

What was measured:
ATX activity in serum = assay: TOOS assay: ex vivo lyso-PLD (ATX) activity in serum with 2 mM exogenous LPC; assay type: biochemical
Procedure: ATX inhibitory activity ex vivo of examined compounds was assessed via the colorimetric TOOS assay.[32]^,[35]^,[36] The assay was done in Lyso-PLD buffer (100 mM Tris-Cl, pH 8, 500 mM NaCl, 5 mM MgCl2, 5 mM CaCl2). A mix of Lyso-PLD buffer and serum (10:1) was prepared. LPC 16:0 was added to this mix at a final concentration of 2 mM. Increasing concentrations of compounds and a choline standard curve (0–100 μM) were prepared using the Lyso-PLD buffer/serum/LPC mix and 100 μL of these were placed in separate wells of a 96-well plate, followed by a 5 h incubation at 37°C. 100 μL of color mix (TOOS 0.3 mM, 4-AAP 0.5 mM, choline oxidase 2 U/mL, HRP 7.95 U/mL in Lyso-PLD buffer) were added to each well. Color was measured at 550 nm using an Optimax spectrophotometer. Background was subtracted from all values to account for the endogenous LPC and choline in the serum. Produced choline levels were calculated from the choline standard curve and indicate the amount of substrate (LPC) that had been consumed in each well corresponding to Lyso-PLD activity.

ATX [1] = target: T1, ATX (Homo sapiens, UniProt Q13822); assay: Amplex Red assay: ATX inhibitory activity in vitro; assay type: biochemical; conditions: in vitro; for IC50: Amplex Red assay
T1 construct: purchased Sino Biological 11308-H07H
Procedure: (§1) ATX inhibitory activity in vitro of examined compounds was assessed with the Amplex Red assay,[32]^,[35]^,[36] as recently published in detail.[37] The assay was done in Amplex Red Assay buffer (Tris 50 mM, CaCl2 5 mM, pH 8). Briefly, 50 μL of increasing concentrations of each compound were placed in separate wells of a black 96-well plate. […] 50 μL of the LPC-containing assay buffer (200 μM) were added to the wells and incubated for 30 min at 37°C to allow the enzyme to initially interact with its substrate. 50 μL of the detection mix (Amplex Red 200 μM, choline oxidase 0.4 U/mL, horseradish peroxidase 4 U/mL) were added to the plate wells. Fluorescence was measured in a Tecan M200 Fluorimeter using excitation at 530 nm and reading at 590 nm, every 5 min for 30 min. The velocity of the reaction and the remaining ATX activity were calculated at the linear phase of the reaction. Dose-response inhibition graphs were plotted with GraphPad Software.

[2] = system: choline oxidase and horseradish peroxidase; assay: Interference with the 2nd and 3rd reaction of the Amplex Red assay; assay type: biochemical
Procedure: as §1
Figure S3. Kinetic analysis of ATX inhibition. Related to Figures 3 and 4
(B) Kinetics for the second (oxidation of choline catalysed by choline oxidase) and third reaction (the conversion of the
Amplex substrate to the fluorescent resorufin catalysed by horseradish peroxidase, HRP) of the Amplex Red Lyso-
phospholipase D assay for representative compounds (TGZ, 4, 5 and EL244). The first reaction includes the conversion of
LPC to LPA catalysed by ATX.
Kinetic graphs are indicative of three technical replicates. […]

[3] = Mouse metabolic clearance and half-life in vitro
ATX [4] = target: T1, ATX; assay: Mode of ATX inhibition, Lineweaver-Burk plots (various LPC concentrations); assay type: biochemical
Procedure: To determine the mode of inhibition of ATX, various concentrations of TGZ, compound 5 and EL244 were tested against various LPC concentrations. Specifically, TGZ was tested against 6.25, 12.5, 25, 50 and 100 μM LPC, compound 5 was tested against 3.125, 6.25, 12.5, 25, 50 and 100 μM LPC, while EL244 was tested against 25, 50, 100 and 150 μM LPC. Lineweaver–Burk graphs depicting the reciprocal of velocity (1/V) against the reciprocal of substrate concentration (1/S) were plotted with GraphPad Software.

PPARγ = target: T2, PPARγ (Homo sapiens, UniProt P37231); assay: PPARγ Gal4 hybrid reporter gene assay; assay type: cell-based; conditions: for EC50 / PPARγ fold activ. (max. activation): Gal4-hybrid reporter, HEK293T cells; for Selectivity for PPARγ: versus PPARα and PPARδ hybrid reporters
T2 construct: expressed in transfected cells; host or cells: HEK293T
T2 sequence (P37231 238-503 limits assumed): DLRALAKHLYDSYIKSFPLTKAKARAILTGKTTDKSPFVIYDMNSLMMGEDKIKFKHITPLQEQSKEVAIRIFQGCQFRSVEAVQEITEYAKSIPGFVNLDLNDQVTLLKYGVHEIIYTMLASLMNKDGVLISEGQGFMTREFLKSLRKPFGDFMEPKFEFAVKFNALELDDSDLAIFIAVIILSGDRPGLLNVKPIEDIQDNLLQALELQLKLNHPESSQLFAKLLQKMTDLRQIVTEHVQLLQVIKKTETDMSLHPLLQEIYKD
Procedure: All well-established assays were performed following straightforward methodology.[49] Plasmids pFA-CMV-hPPARα-LBD, pFA-CMV-hPPARγ-LBD and pFA-CMV-hPPARδ-LBD code for the hinge region and ligand binding domain of the canonical isoform of the respective nuclear receptor and were used to express the Gal4 hybrid receptors. pFR-Luc (Stratagene, La Jolla, CA, USA) and pRL-SV40 (Promega, Madison, WI, USA) were used as Gal4-responsive reporter and as internal control in the hybrid reporter gene assays, respectively. HEK293T cells were seeded in 96-well plates (3×10^4 cells/well). Before transfection, the medium was changed to Opti-MEM without supplements, and transient transfection with the plasmids pFR-Luc, pRL-SV40, and one pFA-CMV-NR-LBD clone was carried out using Lipofectamine LTX reagent (Invitrogen, Carlsbad, CA, USA) according to the manufacturer’s protocol. […] Normalisation of transfection efficiency and cell growth was performed by dividing firefly luminescence by Renilla luminescence and multiplying the result by 1000, yielding relative light units (RLU). Fold activation was obtained by dividing the mean RLU of the test compound by the mean RLU of the untreated control.

Row | SMILES | lyso-PLD (ATX) inhibition in serum (ATX activity in serum) | IC50 (ATX [1]) [nM] | Interference on the 2nd and 3rd steps of the Amplex Red assay [2] | half-life at 0.1 μM [3] [min] | Mode of ATX inhibition (ATX [4]) | EC50 (PPARγ) [nM] | PPARγ fold activ. (max. activation) (PPARγ) [fold] | Selectivity for PPARγ (PPARγ) | ATX inhibitory effect, fold better than 5 (ATX [1]) [fold] | ATX inhibitory effect, fold better than GLPG1690 (ATX [1]) [fold] | ATX inhibitory effect, fold better than TGZ (ATX [1]) [fold] | microsomal CLint at 0.1 μM [3] [µL/min/mg]
1 | O=C1NC(=O)C(Cc2ccc(OCCN3CCN(C(=O)OCc4cc(Cl)cc(Cl)c4)CC3)cc2)S1 (centres unmarked) [Compound 5, 3,5-dichlorobenzyl4-(2-(4-((2,4-dioxothiazolidin-5-yl)methyl)phenoxy)ethyl)piperazine-1-carboxylate] | dose-dependent effect | 290 | Minimal interference; also recorded: not involved at all in the second and third reaction | 21 | non-competitive | 1500 | 9 ± 1 | selective PPARγ agonist | – | – | – | –
2 | O=C1NC(=O)C(Cc2ccc(OCCC3CCN(C(=O)OCc4cc(Cl)cc(Cl)c4)CC3)cc2)S1 (centres unmarked) [EL244, 3,5-dichlorobenzyl 4-(2-(4-((2,4-dioxothiazolidin-5-yl)methyl)phenoxy)ethyl)piperidine-1-carboxylate] | Improved lyso-PLD inhibition | 50 | not involved at all in the second and third reaction | 61 | competitive | 1300 | 17 ± 1 | selectively | 5 | 3 | 10 | 114
